PubChem BioAssay (NCI)
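Dose response: 5 concentrations. Exposure: 48 h. Format: 96-well plates. Endpoint: linear interpolation; highest concentration if not reached. GI50 = concentration required for 50% inhibition of growth. TGI denotes the concentration required for complete inhibition of growth.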

Tests used:
Test in all cases: NCI tumour cell line growth inhibition, 48 h
[1] = system: PC-3 prostate
[2] = system: EKVX NSCLC
[3] = system: SF-268 CNS
[4] = system: A498 renal
[5] = system: RXF 393 renal
[6] = system: RPMI-8226 leukemia
[7] = system: HOP-92 NSCLC
[8] = system: ACHN renal
[9] = system: SW-620 colon
[10] = system: OVCAR-3 ovarian

| Compound | GI50 [1] [µM] | TGI [1] [µM] | GI50 [2] [µM] | TGI [2] [µM] | GI50 [3] [µM] | TGI [3] [µM] | GI50 [4] [µM] | TGI [4] [µM] | GI50 [5] [µM] | TGI [5] [µM] | GI50 [6] [µM] | TGI [6] [µM] | GI50 [7] [µM] | TGI [7] [µM] | GI50 [8] [µM] | TGI [8] [µM] | GI50 [9] [µM] | TGI [9] [µM] | GI50 [10] [µM] | TGI [10] [µM] |
| --- | --- | --- | --- | --- | --- | --- | --- | --- | --- | --- | --- | --- | --- | --- | --- | --- | --- | --- | --- | --- |
| C=CCN1CC(=O)N2[C@@H](Cc3ccc(O)cc3F)C(=O)N(Cc3cccc(N4CC(N5CCN(CC)CC5)C4)n3)C[C@@H]2N1C(=O)NCc1ccccc1 | 0.0359 | > 100 | 0.278 | > 100 | 0.0348 | > 100 | < 0.0118 | 0.0666 | 0.231 | 6.85 | 0.05 | 26.2 | 0.0217 | 0.0829 | 0.393 | > 100 | 0.107 | > 100 | 0.0328 | > 100 |
| COC(=O)CCCCC(=O)c1c(C)[nH]c(/C=C2\N=C(c3ccc[nH]3)C=C2OC)c1C | 0.47 | 1.88 | 1.14 | 2.61 | 0.802 | 2.17 | 2.49 | 6.39 | 0.524 | 2 | 0.428 | 2.34 | 0.414 | 1.5 | 1 | 2.32 | 0.395 | 1.54 | 0.88 | 2.24 |
| OCCNC1c2cc(Cl)ccc2-c2c(Cl)cc(Cl)cc21 (centres undefined) |  | 77.3 |  | > 100 |  | > 100 |  | > 100 |  | > 100 |  | > 100 |  | 55.8 |  | 67 |  | > 100 |  | 80 |
| C[N+](C)(C)CC1CCCC1=O (centres undefined) |  | 2.91 |  | 4.62 |  | 20.8 |  | 17.7 |  | 5.3 |  | 11.2 |  | 2.66 |  | 9.94 |  | 1.07 |  | 6.87 |
| COC1C(O)C(CO)OC(OC2C(O)COC(OC3C(C)OC(OC4C(O[C@H]5CC[C@@]6(C)C(CC=C7[C@H]6CCC68C(=O)O[C@@](C)(CCCC(C)C)[C@H]6[C@@H](OC(C)=O)C[C@@]78C)C5(C)C)OCC(OS(=O)(=O)O)C4O)C(OC4OCC(O)C(O)C4O)C3O)C2O)C1O (some centres undefined) | 0.159 | 1.87 | 0.101 | 0.565 | 0.199 | 0.685 | 0.324 | 0.821 | 0.184 | 0.66 | 0.163 | 0.402 | 0.0934 | 0.842 | 0.149 | 0.298 | 0.0952 | 0.272 | 0.181 |  |
| COC(=O)c1cncc(/C=C/c2c(C)cc(O)cc2C)c1 | 12.2 | > 25 | > 17.3 | > 25 | 14.1 | > 25 | 11 | > 25 | 5.97 | 16.7 | 9.03 | > 25 | 4.97 | > 22.1 | > 21.5 | > 25 | 8.63 | > 25 | 10.1 | > 21.1 |
| CN(CCNCc1ccccn1)CCNCc1ccccn1 | 2.27 | 7.59 | 3.01 | 12.3 | 3.96 | 15.4 | 1.8 | 3.27 | 1.94 | 3.81 | 3.41 | 67.6 | 2.02 | 5.27 | 2.2 | 5.82 | 3.18 | 11.3 | 2.09 | 4.27 |
| Oc1ccc(C(c2ccc(O)cc2)c2ccc(Br)cn2)cc1 | 0.257 | 0.72 | 0.358 | 3.85 | 21.5 | > 91 | 0.6 | 16.1 | 0.217 | 0.532 | 15.6 | 58.6 | 0.25 | 1.44 | 0.45 | 14.5 | 35.9 | > 100 | 0.0963 | 0.411 |
| O=[N+]([O-])c1ccc(N2CCOCC2)c2c1no[n+]2[O-] | 1.25 | 5.53 | 1.93 | 6.72 | 0.939 | 3.03 | 1.17 | 3.2 | 1.49 | 4.01 | 1.51 | 4.09 | 0.923 | 5.62 | 0.528 | 3.15 | 1.18 | 2.48 | 1.4 | 3.15 |
| O=C(/C=C/c1cccc(O)c1)c1cccc(-n2cc(-c3ccccc3)[nH]c2=O)c1 | 2.82 | 11.1 | 7.18 | 23 | 3.66 | 12.3 | 12.3 | 24.9 | 1.83 | 3.51 | 2.16 | 6.33 | 3.57 | 13.8 | 2.72 | 7.4 | 2.13 | 4.74 | 2.58 | 6.19 |
| C#CCNC(=O)[C@H](CC)[C@H]1CC[C@H](C)[C@H]([C@@H](C)[C@H](O)[C@H](C)C(=O)[C@H](CC)C2O[C@]3(C=CC(=O)[C@]4(CC[C@@](C)([C@H]5CC[C@](O)(CC)[C@H](C)O5)O4)O3)[C@H](C)C[C@@H]2C)O1 (some centres undefined) | 2 | 8.78 | 2.59 | > 100 | 2.08 | 6.37 | 2.19 | 6.07 | 2.48 | 7.63 | 1.77 | 4.9 | 1.37 | 6.62 | 2.94 | 14.6 | 3.12 | > 100 | 1.86 | 3.98 |
| Cc1cc(N(CCCNc2ccnc3cc(Cl)ccc23)Cc2ccco2)nc(N2CCN(C)CC2)n1 | 4.12 | 17.3 | 4.99 | 22 | 2.9 | 15.7 | 9.15 | 45.5 | 1.79 | 3.55 | 2.09 | 5.15 | 1.92 | 4.99 | 2.46 | 6.51 | 2.82 | 12.2 | 2.87 | 12.1 |
| CC(C)(O)CNc1nc(Nc2ccnc(C(F)(F)F)c2)nc(-c2cccc(C(F)(F)F)n2)n1 | 27.4 | > 100 | 21.4 | 64.1 | 23.1 | 76.4 | 16.1 | 37.2 | 20.7 | 48.4 | 18.5 | 56.1 | 23.4 | 74.2 | 23.5 | 66.7 | 26.7 | 86.5 | 20.1 | 52 |
